Measured values reported in patent publication US12102646B2, “Compositions for the treatment of fibrosis and inflammation” (Viking Therapeutics, Inc., priority 2018, dated 2024).

Columns and labels:
Format in all cases: in vivo
DIO-NASH mice = experiment: DIO-NASH mice, 8 weeks oral once-daily treatment, liver fibrosis read-outs (Example 1); conditions: for proportion of animals with reduction in fibrosis score post-treatment: compared with mock treated animals; for liver Picro-Sirius Red (PSR) staining (collagen 1 and 3): terminal liver sections, morphometry, Compound 1 vs mock, Compound 2 vs control- or mock-treated
Method: DIO-NASH mice were acclimatized for 3 weeks, with pre-treatment liver biopsy samples collected prior to acclimatization. Mice were randomly assigned to one of five dosing groups, with 12 mice per group. Assigned dosages were: Compound 2 (low): 3 mg/kg; Compound 2 (high): 10 mg/kg; Compound 1: 10 mg/kg; and Elafibranor (30 mg/kg). One group was mock treated with vehicle only as a control. Dosage forms were administered orally once per day. After 8 weeks, animals were sacrificed and liver samples were taken. Liver samples were assayed for total liver hydroxyproline, and subjected to immunohistochemical observation for fibrosis stage as well as the extent of ColaI (Collagen Type Ia) staining. […] Since hydroxyproline is a significant component of collagen, and collagen is the most significant source of hydroxyproline in animal tissues, levels of hydroxyproline provide a reliable proxy for the presence of collagen in a sample.
Terminal liver biopsy samples were also subjected to histochemical staining and immunohistochemical staining. Representative images of liver stained with Picro-Sirius Red (to visualize collagen I and III deposition, red stain) at the end of the treatment period following 8 weeks of treatment with vehicle, low dose Compound 2, high dose Compound 2, Compound 1, or elafibranor are shown in FIG. 2. […] Representative images of liver stained with anti-type I collagen (col1a1) (Southern Biotech, Cat. 131001) at the end of the treatment period following 8 weeks of treatment with vehicle, low dose Compound 2, high dose Compound 2, Compound 1, or elafibranor are shown in FIG. 3. The extent of Col1A1 content was calculated as the total liver Col1A1 staining in terminal liver biopsy samples.
Fibrosis scores were also calculated based on observation of terminal liver biopsy samples.

[1] = tested on: diet-induced NASH mouse model; experiment: diet-induced NASH mouse model, 8 weeks dosing, liver/plasma biochemistry and histology (Example 6); conditions: for total liver galectin-3: compared to vehicle, 8 weeks dosing, FIG. 9
Method: (§1) Compound 2 was evaluated in a diet-induced NASH mouse model (See, e.g., Hansen, H. et al., Drug Discovery Today 22(17):1701-1718 (2017) which is hereby incorporated by reference with respect to its disclosure of diet-induced, genetic, chemical, and other NASH mouse models). […] Animals were biopsied pre-study, and only animals with NASH and fibrosis were selected for study. Selected animals were acclimatized and randomized, with experimental groups of 11-12 animals per cohort receiving oral dosing of compound 2 according to the following schedules: Daily dosing for 8 weeks; or daily dosing for week 0-1 followed by weekly dosing for weeks 2-8. At week 8, animals were sacrificed and tissues analyzed. Plasma enzymes (P-ALT (alanine aminotransferase) and P-AST (aspartate aminotransferase)), total plasma triglycerides, and total plasma cholesterol were measured, and terminal necropsy of each liver was carried out, assaying total liver biochemistry including total liver triglycerides, and total liver cholesterol, as well as histological evaluation of NAFLD activity score (done pre- and post-treatment), fibrosis stage (also done pre- and post-treatment), steatosis, Col1a1 level, and galactin-3 level. Tissue samples were preserved for characterization using RNAseq; RNAseq was used to determine expression levels for genes showing differential expression in compound 2-treated vs. vehicle treated animals and/or genes known to be implicated in fibrosis. Additionally, expression levels for genes known to be implicated in inflammation, such as ANXA2, were determined in compound 2-treated vs. vehicle treated animals.

[2] = tested on: pro-fibrotic and pro-inflammatory genes (Col1a1, Col3a1, ACTA2, LGALS1, ENPP2, ANXA2); experiment: RNAseq liver gene expression in diet-induced NASH mouse model (Example 6); parameters: concentration or dose not given beside the values
Method: as §1

[3] = tested on: Dunkin-Hartley guinea pigs with pulmonary fibrosis; experiment: bleomycin-induced pulmonary fibrosis in guinea pigs (Example 2); conditions: lungs; relative to levels prior to administration; 6-10 weeks
Method: Pulmonary fibrosis is induced in healthy male Dunkin-Hartley guinea pigs by administering bleomycin intratracheally. Control subjects are developed by intratracheal administration of saline solution. After the establishment of pulmonary fibrosis in the bleomycin treated animals, test articles comprising any one of Compounds 1-4, or any other compound disclosed herein, are administered to each subject as appropriate for its formulation, daily or as appropriate, for 6-10 weeks. Unilateral lung biopsies are taken prior to the first administration of the test articles and again after sacrifice following the last administration of the test articles. Biopsy samples are analyzed as described in Example I, with the addition of immunohistochemical staining for type III collagen. Lungs from animals treated with the compounds disclosed herein, especially those animals treated with Compound 2, show reduced levels of hydroxyproline, decreased Collagen III staining, and decreased fibrosis score relative to the levels shown prior to the administration of the test articles. Mock treated animals show little or no reduction in fibrosis, hydroxyproline content, or Collagen III content.

[4] = tested on: nude mice with palmar fascia fibrosis; experiment: palmar fascia fibrosis in nude mice (second Example 2); conditions: relative to levels prior to administration, 6-10 weeks
Source text: Palmar fascia fibrosis is induced in nude mice by introducing fibroblasts from fibrotic cords of Dupuytren's disease patients as described in Stish, L. et al., BMC Musculoskelet. Disord. 16: 138-148 (2015) which is hereby incorporated by reference with respect to its description of the establishment of an animal model system for the study of palmar fascia fibrosis. After the establishment of palmar fascia fibrosis in the fibroblast treated animals, test articles comprising any one of Compounds 1-4, or any other compound disclosed herein, are administered to each subject as appropriate for its formulation, daily or as appropriate, for 6-10 weeks. Unilateral forepaw biopsies are taken prior to the first administration of the test articles and again after sacrifice following the last administration of the test articles. Biopsy samples are analyzed as described in Example I, with the addition of immunohistochemical staining for type III collagen. Palmar fascia from animals treated with the compounds disclosed herein, especially those animals treated with Compound 2, show reduced levels of hydroxyproline, decreased Collagen III staining, and decreased fibrosis score relative to the levels shown prior to the administration of the test articles. Mock treated animals show little or no reduction in fibrosis, hydroxyproline content, or Collagen III content.

[5] = tested on: Sprague-Dawley Rats or C57BL mice with hypertrophic skin lesions; experiment: hypertrophic skin lesions in rats or mice (Example 3); conditions: injection site skin samples; relative to levels prior to administration; 6-10 weeks
Source text: Hypertrophic skin lesions are induced in Sprague-Dawley Rats by subcutaneous injection of capsaicin as described in Wallengren, J. et al., Skin Pharm. Appl. Skin Physiol. 15(3):154-165(2002), which is hereby incorporated by reference with respect to its description of the induction of hypertrophic skin lesions in rats; or in C57BL or other appropriate strain mice by subcutaneous administration of CCl4 and/or bleomycin, as described in Alonso-Merino et al., Proc. Nat. Acad. Sci. 113(24):E3451-60 (2016), which is incorporated herein for its disclosure of the induction of fibrotic skin lesions in mice. After the establishment of hypertrophic skin lesions in the capsaicin, CCl4 and/or bleomycin treated animals, test articles comprising any one of Compounds 1-4, or any other compound disclosed herein, are administered to each subject animal as appropriate for its formulation, daily or as appropriate, for 6-10 weeks. Skin biopsies from the injection site are taken prior to the first administration of the test articles and again after sacrifice following the last administration of the test articles. Biopsy samples are analyzed as described in Example I, with the addition of immunohistochemical staining for type III collagen. Injection site skin samples from animals treated with the compounds disclosed herein, especially those animals treated with Compound 2, show reduced levels of hydroxyproline, decreased Collagen III staining, and decreased fibrosis score relative to the levels shown prior to the administration of the test articles. Mock treated animals show little or no reduction in fibrosis, hydroxyproline content, or Collagen III content.

[6] = tested on: Agl-/- mice that manifest GSD-3-like hepatic symptoms; experiment: GSD-3-like Agl-/- mice (Example 4); conditions: liver samples; relative to levels prior to administration; 6-10 weeks
Method: (§2) Glucose-6-phosphatase-α deficient mice that manifest GSD-3-like hepatic symptoms, including hypercholesterolemia and hyperlipidemia (Agl−/−, see e.g. Liu, K. M. et al., Mol. Genet. Metabol. 111(4):467-76 (2014)) are treated with test articles comprising any one of Compounds 1-4, or any other compound disclosed herein, administered to each subject as appropriate for its formulation, daily or as appropriate, for 6-10 weeks. Liver biopsies are taken prior to the first administration of the test articles and again after sacrifice following the last administration of the test articles. Biopsy samples are analyzed as described in Example I. Liver samples from animals treated with the compounds disclosed herein, especially those animals treated with Compound 2, show reduced levels of hydroxyproline, decreased Collagen I staining, and decreased fibrosis score relative to the levels shown prior to the administration of the test articles. Mock treated animals show little or no reduction in fibrosis, hydroxyproline content, or Collagen I content.

[7] = tested on: Phosphorylase kinase deficient mice (PhKc-/-); experiment: GSD-8/9-like PhKc-/- mice (Example 5); conditions: liver samples; relative to levels prior to administration; 6-10 weeks
Method: as §2, with “Phosphorylase kinase” for “Glucose-6-phosphatase-α”, “GSD-8/9-like” for “GSD-3-like”, “(PhKc−/−, see, e.g., Varsanyi,” for “(Agl−/−, see e.g. Liu, K.”, “Biochem.” for “Mol.”, “18(3-4):247-61 (1980)),” for “Metabol. 111(4):467-76 (2014))”

[8] = relative to pre-treatment samples, 8 weeks, FIG. 7
[9] = treatment groups relative to untreated controls, week 8, oral
[10] = post-treatment liver, 8 weeks, FIG. 8

Cc1cc(OCP(=O)(OCOC(=O)C(C)(C)C)OCOC(=O)C(C)(C)C)cc(C)c1Cc1ccc(O)c(Cc2ccccc2)c1 [Compound 1]
proportion of animals with reduction in fibrosis score post-treatment (DIO-NASH mice; 8 weeks): higher
liver Picro-Sirius Red (PSR) staining (collagen 1 and 3) (DIO-NASH mice; 8 weeks oral once per day): lower
total liver galectin-3 [1]: reduction
ACTA2 Change versus Vehicle Control ([2]; 8-week dosing, fibrosis marker): −30.5%
ENPP2 Change versus Vehicle Control ([2]; 8-week dosing, fibrosis marker): −44.1%
LGALS1 Change versus Vehicle Control ([2]; 8-week dosing, fibrosis marker): −35.1%

Cc1cc(OCP2(=O)OCC[C@@H](c3cccc(Cl)c3)O2)cc(C)c1Cc1ccc(O)c(C(C)C)c1 (stereo partly shown) [Compound 2]
animals showing increases in fibrosis score post-treatment (DIO-NASH mice; 8 weeks): No
proportion of animals with reduction in fibrosis score post-treatment (DIO-NASH mice; 8 weeks): higher
total liver Col1A1 content (DIO-NASH mice; terminal liver biopsy, anti-type I collagen staining, vs control-treated or mock-treated animals, 8 weeks): lower
liver Picro-Sirius Red (PSR) staining (collagen 1 and 3) (DIO-NASH mice; 8 weeks oral once per day): lower
total liver hydroxyproline levels (DIO-NASH mice; vs control-treated (elafibranor) or mock-treated animals, 8 weeks oral once per day, Compound 2 3 and 10 mg/kg): lower
toxicity ([1]; 8 weeks oral dosing): No significant toxicity
total liver galectin-3 [1]: reduction
reduction in fibrosis (fibrosis score) [1, 8]: 50.2%
reduction in hydroxyproline [1, 8]: 46.3%
reduction in type 1 collagen deposition [1, 8]: 60.2%
liver cholesterol [1, 9]: Significant reductions
liver triglycerides [1, 9]: Significant reductions
NAS scores ([1]; week 8, oral): significant improvements
total lipid content in the liver, reduction ([1]; week 8, oral, FIG. 6): approximately 80%
ACTA2 Change versus Vehicle Control ([2]; 8-week dosing, fibrosis marker): −37.0%
Col1a1 Change versus Vehicle Control ([2]; 8-week dosing, fibrosis marker): −36.3%
Col3a1 Change versus Vehicle Control ([2]; 8-week dosing, fibrosis marker): −27.1%
ENPP2 Change versus Vehicle Control ([2]; 8-week dosing, fibrosis marker): −56.3%
LGALS1 Change versus Vehicle Control ([2]; 8-week dosing, fibrosis marker): −64.7%
ANXA2 Change versus Vehicle Control ([2]; 8-week dosing, inflammatory marker): −40.3%
expression of pro-inflammatory gene ANXA2 reduced by ([2]; post-treatment liver, 8 weeks): 40.3%
expression of ACTA2 (αSMA) reduced by [2, 10]: 37%
expression of Col1a1 reduced by [2, 10]: 36.3%
expression of Col3a1 reduced by [2, 10]: 27.1%
expression of LGALS1 (Galectin 1) reduced by [2, 10]: 64.7%
Collagen III staining [3]: decreased
fibrosis score [3]: decreased
levels of hydroxyproline [3]: reduced
Collagen III staining [4]: decreased
fibrosis score [4]: decreased
levels of hydroxyproline [4]: reduced
Collagen III staining [5]: decreased
fibrosis score [5]: decreased
levels of hydroxyproline [5]: reduced
Collagen I staining [6]: decreased
fibrosis score [6]: decreased
levels of hydroxyproline [6]: reduced
Collagen I staining [7]: decreased
fibrosis score [7]: decreased
levels of hydroxyproline [7]: reduced
